Among the data in patent publication US11084814B2, “Pyrido[3, 4-d]pyrimidine derivative and pharmaceutically acceptable salt thereof” (Teijin Pharma Limited, priority 2016, dated 2021) are IC50 values, retold here.

The target of one experiment is T1, CDK4/cyclin D3 (Homo sapiens, UniProt P11802).
T1 construct: purchased Carna Biosciences, Inc. QS S Assist CDK4/Cyclin D3_FP Kit
The experiment in a line: Human CDK4/cyclin D3 inhibitory activity (QS S Assist CDK4/Cyclin D3_FP Kit, IMAP fluorescent polarization). The note with it: read-out: CDK4 Activity symbol. Type of experiment: biochemical. On the procedure: Human CDK4/Cyclin D3 Inhibitory Activity
Each compound was analyzed for CDK4/cyclin D3 inhibitory activity with an assay kit (QS S Assist CDK4/Cyclin D3_FP Kit, available from Carna Biosciences, Inc.). This assay kit determines kinase activity on the basis of the IMAP technology by Molecular Devices. Specifically, the kinase activity is determined through quantification of a variation in fluorescent polarization caused by binding of a kinase-phosphorylated fluorescent substance to an IMAP-binding reagent.
Each solution was prepared with the 10× assay buffer attached to the kit or a separately prepared assay buffer having the same composition as the assay buffer attached to the kit. An assay buffer was prepared by 10-fold dilution of the 10× assay buffer with distilled water. The assay buffer contains 20 mM HEPES (pH 7.4), 0.01% Tween20, and 2 mM dithiothreitol. A test compound solution was prepared by dilution of the test compound with dimethyl sulfoxide (DMSO) to a concentration 100 times higher than the final concentration and then 25-fold dilution with the assay buffer to a concentration four times higher than the final concentration. An ATP/substrate/Metal solution was prepared by five-fold dilution of the 5×ATP/substrate/Metal solution attached to the kit with the assay buffer. An enzyme solution was prepared by dilution of the CDK4/cyclin D3 attached to the kit with the assay buffer to a concentration twice higher than the final concentration (final concentration of CDK4/cyclin D3: 12.5 to 25 ng/well). A detection reagent was prepared by five-fold dilution of each of 5×IMAP-binding buffer A and 5×IMAP-binding buffer B with distilled water, mixing of IMAP-binding buffer A with IMAP-binding buffer B at a ratio of 85:15, and 400-fold dilution of the IMAP-binding reagent with the mixed buffer.
(§1) The test compound solution (5 μL/well) and the ATP/substrate/Metal solution (5 μL/well) were added to a 384-well plate, and the enzyme solution or the assay buffer (10 μL/well) was added to the plate (total amount of the reaction mixture: 20 μL/well) for initiation of enzymatic reaction. […] The reaction was performed at room temperature for 45 minutes, and the detection reagent (60 μL/well) was then added to the plate, followed by further reaction for 30 minutes at room temperature under light shielding conditions. Subsequently, fluorescent polarization was determined with a microplate reader at an excitation wavelength of 485 nm and an emission wavelength of 535 nm.
The percent inhibition of enzyme activity was calculated for each test compound (note: enzyme activity=100% in the case of addition of the enzyme solution and addition of DMSO instead of the test compound solution, whereas enzyme activity […] in the case of addition of the assay buffer instead of the enzyme solution, and addition of DMSO instead of the test compound solution). The percent inhibition of enzyme activity was fitted to a dose-response curve, to determine a 50% inhibitory concentration against CDK4/cyclin D3.
In each table, “+++” corresponds to IC50<10 nM. “++” 10 nM […] IC50<100 nM, and “+” 100 nM≤IC50.

Another experiment deals with T2, CDK2/cyclin A2 (Homo sapiens, UniProt P24941).
T2 construct: purchased Carna Biosciences, Inc. QS S Assist CDK2/Cyclin A2_FP Kit
As to the kind of experiment: Human CDK2/cyclin A2 inhibitory activity (QS S Assist CDK2/Cyclin A2_FP Kit, IMAP fluorescent polarization). Format: biochemical. The conditions noted are these: read-out: CDK2 Activity symbol. Here is the method:
Human CDK2/Cyclin A2 Inhibitory Activity
Each compound was analyzed for CDK2/cyclin A2 inhibitory activity with an assay kit (QS S Assist CDK2/Cyclin A2_FP Kit, available from Carna Biosciences, Inc.). This assay kit determines kinase activity on the basis of the IMAP technology by Molecular Devices. Specifically, the kinase activity is determined through quantification of a variation in fluorescent polarization caused by binding of a kinase-phosphorylated fluorescent substance to an IMAP-binding reagent.
An assay buffer was prepared by 10-fold dilution of the 10× assay buffer attached to the kit with distilled water, and each solution was prepared with the assay buffer. The assay buffer contained 20 mM HEPES (pH 7.4), 0.01% Tween 20, and 2 mM dithiothreitol. A test compound solution was prepared by dilution of the test compound with dimethyl sulfoxide (DMSO) to a concentration 100 times higher than the final concentration and then 25-fold dilution with the assay buffer to a concentration four times higher than the final concentration. An ATP/substrate/Metal solution was prepared by five-fold dilution of the 5×ATP/substrate/Metal solution attached to the kit with the assay buffer. An enzyme solution was prepared by dilution of the CDK2/cyclin A2 attached to the kit with the assay buffer to a concentration twice higher than the final concentration (final concentration of CDK2/cyclin A2: 2.5 ng/well). A detection reagent was prepared by five-fold dilution of 5×IMAP-binding buffer A with distilled water and 400-fold dilution of the IMAP-binding reagent with the diluted buffer.
as §1, with “60” for “45”
The percent inhibition of enzyme activity was calculated for each test compound (note: enzyme activity=100% in the case of addition of the enzyme solution and addition of DMSO instead of the test compound solution, whereas enzyme activity […] in the case of addition of the assay buffer instead of the enzyme solution and addition of DMSO instead of the test compound solution). The percent inhibition of enzyme activity was fitted to a dose-response curve, to determine a 50% inhibitory concentration against CDK2/cyclin A2.
In each table, “+++” corresponds to IC50<10 nM, “++” 10 nM≤IC50<100 nM, and “+” 100 nM≤IC50.

A value given as a limit tells only on which side of the number the result lay.

T1 sequence (P11802 whole entry): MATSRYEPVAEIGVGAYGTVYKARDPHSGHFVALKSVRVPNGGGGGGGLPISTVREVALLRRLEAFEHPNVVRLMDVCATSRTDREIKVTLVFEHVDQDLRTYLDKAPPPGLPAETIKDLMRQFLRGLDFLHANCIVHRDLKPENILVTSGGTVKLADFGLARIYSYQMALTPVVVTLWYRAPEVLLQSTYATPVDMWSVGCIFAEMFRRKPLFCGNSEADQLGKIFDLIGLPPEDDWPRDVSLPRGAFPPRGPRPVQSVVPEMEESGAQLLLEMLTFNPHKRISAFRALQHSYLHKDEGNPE
T1 sequence (P30281 whole entry partner): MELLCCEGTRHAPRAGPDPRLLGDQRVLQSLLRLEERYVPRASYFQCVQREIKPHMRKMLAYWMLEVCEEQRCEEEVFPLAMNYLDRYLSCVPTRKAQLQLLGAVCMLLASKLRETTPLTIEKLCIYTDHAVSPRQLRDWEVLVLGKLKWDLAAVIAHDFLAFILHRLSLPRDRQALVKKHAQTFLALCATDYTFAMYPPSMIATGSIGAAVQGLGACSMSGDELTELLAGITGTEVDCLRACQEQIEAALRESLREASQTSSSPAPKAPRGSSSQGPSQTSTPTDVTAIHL

Consider `C[C@@H](O)c1cc2cnc(Nc3ccc(CN4CCN(CCO)CC4)cn3)nc2c(N2CCC(C(=O)O)CC2)n1` [Compound 76], for which the IC50 was under 10 nM at CDK4/cyclin D3 and at least 100 nM at CDK2/cyclin A2.
For `C[C@@H](O)c1cc2cnc(Nc3ccc(CN4CCN(CCO)CC4)cn3)nc2c(N2CCN(C)CC2)n1` [Compound 77], in that order: 10 to 100 nM and at least 100 nM.
The corresponding values for `C[C@@H](O)c1cc2cnc(Nc3ccc(CN4CCN(CCO)CC4)cn3)nc2c(N2CCC(F)CC2)n1` [Compound 78] are under 10 nM and at least 100 nM.
The corresponding values for `C[C@@H](O)c1cc2cnc(Nc3ccc(CN4CCN(CCO)CC4)cn3)nc2c(N2CCC(F)(F)CC2)n1` [Compound 79] are under 10 nM and at least 100 nM.
As for `C[C@@H](O)c1cc2cnc(Nc3ccc4c(n3)CCNC4)nc2c(N2CCC(F)(F)CC2)n1` [Compound 80], the figures for the IC50 on CDK4/cyclin D3 and at CDK2/cyclin A2 were under 10 nM and at least 100 nM, respectively.
Take `C[C@@H](O)c1cc2cnc(Nc3ccc4c(n3)CCN(CCO)C4)nc2c(N2CCC(F)(F)CC2)n1` [Compound 81]: the IC50 was under 10 nM on CDK4/cyclin D3 and at least 100 nM at CDK2/cyclin A2.
As for `C[C@@H](O)c1cc2cnc(Nc3ccc4c(n3)CCN(CCN(C)C)C4)nc2c(N2CCC(F)(F)CC2)n1` [Compound 82], the IC50 was under 10 nM at CDK4/cyclin D3 and at least 100 nM on CDK2/cyclin A2.
The corresponding values for `CC(O)c1cc2cnc(Nc3ccc(CN4CCN(CCO)CC4)cn3)nc2c(N2CCCC2C)n1` (centres unmarked) [Compound 83] are under 10 nM and 10 to 100 nM.
For `C[C@@H](O)c1cc2cnc(Nc3ccc(CN4CCN(CCO)CC4)cn3)nc2c(N2CCC(C(F)(F)F)CC2)n1` [Compound 84], in that order: under 10 nM and at least 100 nM.
The corresponding values for `C[C@@H](O)c1cc2cnc(Nc3ccc(CN4CCN(CCO)CC4)cn3)nc2c(N2CCS(=O)(=O)CC2)n1` [Compound 85] are 10 to 100 nM and at least 100 nM.
Regarding `Cc1nc(Nc2ncc3cc([C@@H](C)O)nc(N4CCCC4)c3n2)ccc1N1CCNCC1` [Compound 86], the figures for the IC50 at CDK4/cyclin D3 and at CDK2/cyclin A2 were under 10 nM and at least 100 nM, respectively.
For `Cc1nc(Nc2ncc3cc([C@@H](C)O)nc(N4CCCCC4)c3n2)ccc1N1CCNCC1` [Compound 87], in that order: under 10 nM and at least 100 nM.
For `Cc1nc(Nc2ncc3cc([C@@H](C)O)nc(N4CCCCC4)c3n2)ccc1N1CCN(CCO)CC1` [Compound 88], in that order: under 10 nM and at least 100 nM.
Consider `C[C@@H](O)c1cc2cnc(Nc3ccc(N4CCNCCC4=O)cn3)nc2c(N2CCCCC2)n1` [Compound 89], for which the IC50 on CDK4/cyclin D3 was under 10 nM; on CDK2/cyclin A2, at least 100 nM.
The corresponding values for `C[C@@H](O)c1cc2cnc(Nc3ccc(N4CCNCC4=O)cn3)nc2c(N2CCC(F)CC2)n1` [Compound 90] are under 10 nM and at least 100 nM.
Take `C[C@@H](O)c1cc2cnc(Nc3ccc(N4CCNCC4)nn3)nc2c(N2CCCCC2)n1` [Compound 91]: the IC50 on CDK4/cyclin D3 was under 10 nM; at CDK2/cyclin A2 it was at least 100 nM.
The corresponding values for `OCCc1cc2cnc(Nc3ccc(CN4CCNCC4)cn3)nc2c(N2CCCCC2)n1` [Compound 92] are under 10 nM and at least 100 nM.
For `O=C1CNCCN1c1ccc(Nc2ncc3cc(CCO)nc(N4CCCCC4)c3n2)nc1` [Compound 93], in that order: under 10 nM and at least 100 nM.
Regarding `OCCc1cc2cnc(Nc3ccc(N4CCNCC4)nn3)nc2c(N2CCCCC2)n1` [Compound 94], the IC50 on CDK4/cyclin D3 was under 10 nM; on CDK2/cyclin A2, at least 100 nM.
With `OCCc1cc2cnc(Nc3ccc4c(n3)CCNC4)nc2c(N2CCCCC2)n1` [Compound 95], the figures for the IC50 at CDK4/cyclin D3 and on CDK2/cyclin A2 were 10 to 100 nM and at least 100 nM, respectively.
Take `OCCN1CCN(Cc2ccc(Nc3ncc4cc(CO)nc(N5CCCCC5)c4n3)nc2)CC1` [Compound 96]: the IC50 was under 10 nM at CDK4/cyclin D3 and at least 100 nM at CDK2/cyclin A2.
For `O=C1CNCCN1c1ccc(Nc2ncc3cc(CO)nc(N4CCCCC4)c3n2)nc1` [Compound 97], in that order: under 10 nM and at least 100 nM.
For `C[C@@H](O)c1cc2cnc(Nc3ccc(CN4CCN(CCO)CC4)cn3)nc2c(N2CCC[C@@H]2C)n1` [Compound 98], in that order: 10 to 100 nM and at least 100 nM.
For `C[C@H]1CCN(c2nc([C@@H](C)O)cc3cnc(Nc4ccc(CN5CCN(CCO)CC5)cn4)nc23)C1` [Compound 99], in that order: under 10 nM and at least 100 nM.
As for `C[C@@H]1CCN(c2nc([C@@H](C)O)cc3cnc(Nc4ccc(CN5CCN(CCO)CC5)cn4)nc23)C1` [Compound 100], the IC50 is under 10 nM on CDK4/cyclin D3 and at least 100 nM at CDK2/cyclin A2.
As to `CC1CCC(C)N1c1nc([C@@H](C)O)cc2cnc(Nc3ccc(CN4CCN(CCO)CC4)cn3)nc12` (some centres unmarked) [Compound 101], the figures for the IC50 on CDK4/cyclin D3 and at CDK2/cyclin A2 were under 10 nM and at least 100 nM, respectively.
For `C[C@@H](O)c1cc2cnc(Nc3ccc(CN4CCN(CCO)CC4)cn3)nc2c(N2CCC(C)(C)C2)n1` [Compound 102], in that order: under 10 nM and at least 100 nM.
The corresponding values for `C[C@@H](O)c1cc2cnc(Nc3ccc(CN4CCN(CCO)CC4)cn3)nc2c(N2C3CCC2CC3)n1` [Compound 103] are under 10 nM and at least 100 nM.
Regarding `C[C@@H](O)c1cc2cnc(Nc3ccc(CN4CCN(CCO)CC4)cn3)nc2c(N2CC3CC3C2)n1` (some centres unmarked) [Compound 104], the IC50 was under 10 nM at CDK4/cyclin D3 and at least 100 nM at CDK2/cyclin A2.
Consider `CC(O)c1cc2cnc(Nc3ccc(CN4CCN(CCO)CC4)cn3)nc2c(N2C3CCCC2CC3)n1` (centres unmarked) [Compound 105], for which the IC50 at CDK4/cyclin D3 is under 10 nM; at CDK2/cyclin A2 it was at least 100 nM.
Consider `C[C@@H](O)c1cc2cnc(Nc3ccc(CN4CCN(CCO)CC4)cn3)nc2c(N2CCC(O)CC2)n1` [Compound 106], for which the IC50 on CDK4/cyclin D3 is under 10 nM; at CDK2/cyclin A2, at least 100 nM.
The corresponding values for `OCc1cc2cnc(Nc3ccc(N4CCNCC4)nn3)nc2c(N2CCCCC2)n1` [Compound 107] are under 10 nM and at least 100 nM.
The corresponding values for `OCc1cc2cnc(Nc3ccc(CN4CCNCC4)cn3)nc2c(N2CCCCC2)n1` [Compound 108] are under 10 nM and at least 100 nM.
The corresponding values for `OCCc1cc2cnc(Nc3ccc4c(n3)CCN(CCO)C4)nc2c(N2CCCCC2)n1` [Compound 109] are under 10 nM and at least 100 nM.
